Results from patent US20160193206A1, “BET-PROTEIN-INHIBITING DIHYDROPYRIDOPYRAZINONES” (BAYER PHARMA AKTIENGESELLSCHAFT, priority 2012, published 2016).
pIC50: −log10 of the molar value.

Key:
[1] = molecular target: T1, BRD4 bromo domain 2 [BRD4(2)] (Homo sapiens, UniProt O60885); experiment: BRD4(2)/acetylated peptide H4 binding assay (TR-FRET); details: inhibition of interaction between His6-tagged BRD4(2) (amino acids 357-445) and acetylated histone H4 peptide
T1 construct: N-terminally His6-tagged BRD4(2) (amino acids 357-445); made in house; host or cells: E. coli
Procedure, shortened: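 Compounds (0.1 nM to 20 μM, 11 points, duplicates) preincubated 10 min at 22 °C with 100 nM His6-tagged BRD4(2) residues 357-445, then Ac-H4-biotin peptide added; incubated 1 h at 22 °C and 3 h-overnight at 4 °C. Eu/XL665 emission ratio normalised to DMSO and no-protein controls; 4-parameter IC50.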

[2] = molecular target: T2, BRD4 bromo domain 1 [BRD4(1)] (Homo sapiens, UniProt O60885); experiment: BRD4(1)/acetylated peptide H4 binding assay (TR-FRET); details: inhibition of interaction between His6-tagged BRD4(1) (amino acids 67-152) and acetylated histone H4 peptide
T2 construct: N-terminally His6-tagged BRD4(1) (amino acids 67-152); made in house; host or cells: E. coli
Procedure, shortened: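 IC50 came from a 4-parameter fit of the 665/620 nm emission ratio, normalised to DMSO and no-protein controls. His6-tagged BRD4(1) residues 67-152 (typically 10 nM final) was preincubated 10 min with compound (0.1 nM to 20 μM, duplicates), then exposed to Ac-H4-biotin peptide at 22 °C for 1 h and 4 °C for at least 3 h.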

MOLM-13 cell line = experiment: MOLM-13 cell proliferation assay (alamarBlue); assay type: cell-based; details: Homo sapiens, inhibition of proliferation of MOLM-13 cells (acute myeloid leukaemia), 96 hours incubation
Protocol: In accordance with the invention, the substances were tested for their ability to inhibit the proliferation of the MOLM-13 cell linie (Deutsche Sammlung für Mikroorganismen und Zellkulturen [German Collection of Microorganisms and Cell Cultures], ACC 554; acute myeloid leukaemia). Cell viability was determined by means of the alamarBlue® reagent (Invitrogen) in a Victor X3 Multilabel Reader (Perkin Elmer). The excitation wavelength was 530 nm and the emission wavelength […].
The MOLM-13 cells were sown at a density of 4000 cells/well in 100 μl of growth medium on 96-well microtitre plates. After overnight incubation at 37° C., the fluorescence values were determined (CI values). The plates were then treated with various substance dilutions and incubated at 37° C. for 96 hours. Subsequently, the fluorescence values were determined (CO values). For the data analysis, the CI values were subtracted from the CO values and the results were compared between cells which had been treated with various dilutions of the substance or only with buffer solution. The IC50 values (substance concentration needed for 50% inhibition of cell proliferation) were calculated therefrom.

Compound | pIC50 [1] | pIC50 [2] | pIC50 (MOLM-13 cell line)
COc1cc(C(=O)NC2CCN(C)CC2)ccc1Nc1ccc2c(n1)N(C1CCCC1)[C@H](C)C(=O)N2C [Example 1, 4-{[(3R)-4-Cyclopentyl-1,3-dimethyl-2-oxo-1,2,3,4-tetrahydropyrido[2,3-b]pyrazin-6-yl]amino}-3-methoxy-N-(1-methylpiperidin-4-yl)benzamide] | 6.86 | 6.59 | 6.75
COc1cc(C(=O)NCCN(C)C)ccc1Nc1ccc2c(n1)N(C(C)C)[C@H](C)C(=O)N2C [Example 5, N-[2-(Dimethylamino)ethyl]-4-{[(3R)-1,3-dimethyl-2-oxo-4-(propan-2-yl)-1,2,3,4-tetrahydropyrido[2,3-b]pyrazin-6-yl]amino}-3-methoxybenzamide] |  | 7.03 | 6.30
COc1cc(C(=O)NC2CCCC2)ccc1Nc1ccc2c(n1)N(C(C)C)[C@H](C)C(=O)N2C [Example 6, N-Cyclopentyl-4-{[(3R)-1,3-dimethyl-2-oxo-4-(propan-2-yl)-1,2,3,4-tetrahydropyrido[2,3-b]pyrazin-6-yl]amino}-3-methoxybenzamide] |  | 6.59 | 6.12
COc1cc(C(=O)NCCN(C)C)ccc1Nc1ccc2c(n1)N(C1CCOCC1)[C@H](C)C(=O)N2C [Example 46, N-[2-(Dimethyalmino)ethyl]-4-{[(3R)-1,3-dimethyl-2-oxo-4-(tetrahydro-2H-pyran-4-yl)-1,2,3,4-tetrahydropyrido[2,3-b]pyrazin-6-yl]amino}-3-methoxybenzamide] |  | 7.28 | 6.34
CC(C)N1c2nc(Nc3ccc(C(=O)NC4CCN(C)CC4)cc3)ccc2N(C)C(=O)[C@H]1C [Example 98, 4-{[(3R)-1,3-Dimethyl-2-oxo-4-(propan-2-yl)-1,2,3,4-tetrahydropyrido[2,3-b]pyrazin-6-yl]amino}-N-(1-methylpiperidin-4-yl)benzamide] | 7.01 | 6.55 | 
C[C@@H]1C(=O)N(C)c2ccc(Nc3ccc(S(=O)(=O)N(C)C)cc3)nc2N1C1CCN(C(=O)OC(C)(C)C)CC1 [Example 106, tert-Butyl 4-[(3R)-6-{[4-(dimethylsulphamoyl)phenyl]amino}-1,3-dimethyl-2-oxo-2,3-dihydropyrido[2,3-b]pyrazin-4(1H)-yl]piperidine-1-carbonate] | 6.33 | 6.20 | 
C[C@@H]1C(=O)N(C)c2ccc(Nc3ccc(S(=O)(=O)N[C@H]4CC[C@H](N5CCN(CC6CC6)CC5)CC4)cc3)nc2N1Cc1ccccc1 [Example 109, 4-{[(3R)-4-Benzyl-1,3-dimethyl-2-oxo-1,2,3,4-tetrahydropyrido[2,3-b]pyrazin-6-yl]amino}-N-{trans-4-[4-(cyclopropylmethyl)piperazin-1-yl]cyclohexyl}benzenesulphonamide] | 7.11 | 7.44 | 
COc1cc(S(=O)(=O)NC2CCN(C)CC2)ccc1Nc1ccc2c(n1)N(C1CCOCC1)[C@H](C)C(=O)N2C [Example 110, 4-{[(3R)-1,3-Dimethyl-2-oxo-4-(tetrahydro-2H-pyran-4-yl)-1,2,3,4-tetrahydropyrido[2,3-b]pyrazin-6-yl]amino}-3-methoxy-N-(1-methylpiperidin-4-yl)benzenesulphonamide] | 7.26 | 7.42 | 
COc1cc(S(=O)(=O)N[C@H]2CC[C@H](N3CCN(CC4CC4)CC3)CC2)ccc1Nc1ccc2c(n1)N(C1CCOCC1)[C@H](C)C(=O)N2C [Example 111, N-{trans-4-[4-(Cyclopropylmethyl)piperazin-1-yl]cyclohexyl}-4-{[(3R)-1,3-dimethyl-2-oxo-4-(tetrahydro-2H-pyran-4-yl)-1,2,3,4-tetrahydropyrido[2,3-b]pyrazin-6-yl]amino}-3-methoxybenzenesulphonamide] | 6.89 | 7.54 | 

Continued by rising pIC50 [2], values first:

pIC50 [1] | pIC50 [2] | pIC50 (MOLM-13 cell line) | Compound
6.66 | 6.21 |  | COCCN1c2nc(Nc3ccc(C(=O)NC4CCN(C)CC4)cc3)ccc2N(C)C(=O)C1C (stereo not drawn) [Example 104, 4-{[4-(2-Methoxyethyl)-1,3-dimethyl-2-oxo-1,2,3,4-tetrahydropyrido[2,3-b]pyrazin-6-yl]amino}-N-(1-methylpiperidin-4-yl)benzamide]
6.21 | 6.30 | 5.63 | COc1cc(C(=O)NC2CCN(C)CC2)ccc1Nc1ccc2c(n1)N(C(C)C)[C@H](C)C(=O)N2C [Example 2, 4-{[(3R)-1,3-Dimethyl-2-oxo-4-(propan-2-yl)-1,2,3,4-tetrahydropyrido[2,3-b]pyrazin-6-yl]amino}-3-methoxy-N-(1-methylpiperidin-4-yl)benzamide]
6.73 | 6.34 |  | COCCN1c2nc(Nc3ccc(C(=O)N[C@H]4CC[C@H](N5CCN(CC6CC6)CC5)CC4)cc3)ccc2N(C)C(=O)C1C (stereo partly drawn) [Example 105, N-{trans-4-[4-(Cyclopropylmethyl)piperazin-1-yl]cyclohexyl}-4-{[4-(2-methoxyethyl)-1,3-dimethyl-2-oxo-1,2,3,4-tetrahydropyrido[2,3-b]pyrazin-6-yl]amino}benzamide]
6.46 | 6.36 |  | CC(C)N1c2nc(Nc3ccc(C(=O)N[C@H]4CC[C@H](N5CCN(CC6CC6)CC5)CC4)cc3)ccc2N(C)C(=O)[C@H]1C [Example 96, N-{trans-4-[4-(Cyclopropylmethyl)piperazin-1-yl]cyclohexyl}-4-{[(3R)-1,3-dimethyl-2-oxo-4-(propan-2-yl)-1,2,3,4-tetrahydropyrido[2,3-b]pyrazin-6-yl]amino}benzamide]
6.93 | 6.58 |  | COc1cc(C(=O)NC2CCC(O)CC2)ccc1Nc1ccc2c(n1)N(C(C)C)[C@H](C)C(=O)N2C (stereo partly drawn) [Example 97, 4-{[(3R)-1,3-Dimethyl-2-oxo-4-(propan-2-yl)-1,2,3,4-tetrahydropyrido[2,3-b]pyrazin-6-yl]amino}-N-(4-hydroxycyclohexyl)-3-methoxybenzamide]
6.33 | 6.88 | 6.20 | COc1cc(C(=O)NCCN2CCOCC2)ccc1Nc1ccc2c(n1)N(C(C)C)[C@H](C)C(=O)N2C [Example 3, 4-{[(3R)-1,3-Dimethyl-2-oxo-4-(propan-2-yl)-1,2,3,4-tetrahydropyrido[2,3-b]pyrazin-6-yl]amino}-3-methoxy-N-[2-(morpholin-4-yl)ethyl]benzamide]
7.07 | 6.97 |  | COc1cc(S(=O)(=O)N2CCN(C)CC2)ccc1Nc1ccc2c(n1)N(C1CCOCC1)[C@H](C)C(=O)N2C [Example 112, (3R)-6-({2-Methoxy-4-[(4-methylpiperazin-1-yl)sulphonyl]phenyl}amino)-1,3-dimethyl-4-(tetrahydro-2H-pyran-4-yl)-3,4-dihydropyrido[2,3-b]pyrazin-2(1H)-one]
 | 7.04 | 6.42 | C[C@@H]1C(=O)N(C)c2ccc(Nc3ccc(C(=O)N4CC5(CCS5(=O)=O)C4)cc3)nc2N1C1CCCC1 [Example 7, (3R)-4-Cyclopentyl-6-({4-[(1,1-dioxido-1-thia-6-azaspiro[3.3]hept-6-yl)carbonyl]phenyl}amino)-1,3-dimethyl-3,4-dihydropyrido[2,3-b]pyrazin-2(1H)-one]
6.62 | 7.20 |  | C[C@@H]1C(=O)N(C)c2ccc(Nc3ccc(S(=O)(=O)NC4CCN(C)CC4)cc3)nc2N1c1ccccc1 [Example 108, 4-{[(3R)-1,3-Dimethyl-2-oxo-4-phenyl-1,2,3,4-tetrahydropyrido[2,3-b]pyrazin-6-yl]amino}-N-(1-methylpiperidin-4-yl)benzenesulphonamide]
